From patent publication US20230042917A1, “DIRECT REPROGRAMMING OF SOMATIC CELLS INTO MYOGENIC CELLS” (THE GENERAL HOSPITAL CORPORATION, priority 2016, published 2023) come the findings set out here.

The assay concerns MEFs expressing MyoD. In words: Reprogramming of MyoD-expressing MEFs with small molecules (myotubes, proliferative cells, contraction, Pax7 staining). The following applies: for formation of MyHC+, polynucleated myotubes / generation of proliferative cells: Knockout DMEM, 10% KOSR, 10% FBS, 10 ng/ml bFGF. Format: cell-based, mouse. The text has this: A doxycycline (dox) inducible lentiviral system (tetOP-MyoD) was engineered, allowing for inducible and reversible activation of MyoD in target cells. […] The myogenic identity of converted cells was confirmed by immunofluorescence staining for the differentiation marker myosin heavy chain (MyHC), which was absent in uninfected MEFs (FIG. 14C).
MEFs undergoing MyoD-induced lineage conversion were exposed to various small molecules and cytokines in an attempt to induce reprogramming into a proliferative, myogenic progenitor-like cell state in addition to mature myotubes (FIG. 14A, bottom row). Specifically, compounds including the GSK3β inhibitor CHIR99021 (abbreviated as “G”) and the TGF-01 receptor inhibitor RepSox (abbreviated as “R”) were used. In addition, the effect of the cyclic AMP agonist Forskolin (abbreviated as “F”), which reportedly facilitates the transient expansion of satellite cells in vitro was tested. These compounds were added individually or combinatorially to MEFs expressing MyoD and cultured in Knockout DMEM media containing 10% KOSR and 10% FBS and supplemented with 10 ng/ml bFGF, which promotes satellite cell and myoblast growth. […] Cultures treated with these small molecules typically assembled into three-dimensional colonies with emanating myotubes and numerous small, round cells that seem to be muscle progenitors (FIG. 14B and live video monitoring was used to monitor the muscle progenitors). KOSR media contains ascorbic acid, which enhances reprogramming into iPSCs by modulating epigenetic regulators. To determine whether ascorbic acid is required for the induction of these proliferative, putative progenitor cells using our culture system, MEFs expressing MyoD were exposed to F/R in the presence or absence of ascorbic acid using DMEM media containing FBS and bFGF but lacking KOSR.
To assess the temporal requirement for exogenous MyoD expression and small molecules during the establishment and maintenance of our progenitor-like cell population, infected MEFs were treated with dox for 0, 2, 4, 6, 8 or 10 days in the presence of F/R, followed by 5 days of dox withdrawal before scoring for colonies that proliferated and contracted (FIG. 14G). […] By contrast, continuous exposure of cultures to F/R was required to maintain these cultures upon passaging (FIG. 14G and data not shown). Thus, without being bound by any particular theory, small molecules and growth factors collaborate with transient MyoD expression to endow MEFs with a myogenic progenitor-like state. These cells are provisionally termed “induced myogenic progenitor cells” (iMPCs).
Mouse embryonic fibroblasts (MEFs), Tail-tip fibroblasts (TTFs) and the commercial myoblast cell line C2C12 (ATCC®CRL-1772™) were cultured in “MEF medium” containing DMEM (ThermoFisher Scientific, catalog number 10313-021), supplemented with 10% Fetal Bovine Serum (FBS) (HyClone catalog number SH30396.03), 1% GlutaMAX (ThermoFisher Scientific, catalog number 35050061), 1% non-essential amino acids (ThermoFisher Scientific, catalog number 11140050), 1% penicillin-streptomycin (ThermoFisher Scientific, catalog number 15140122), 0.5% β-mercaptoethanol (ThermoFisher Scientific, catalog number 21985-023). Freshly isolated satellite cells and derivative myoblasts were cultured using a 1:1 ratio of DMEM and F-10 (1×) Nutrient mix (ThermoFisher Scientific, catalog number 11550-043) supplemented with 10% horse serum (ThermoFisher Scientific, catalog number 16050-122), 20% FBS (HyClone catalog number SH30396.03) and […] basic-FGF (R&D 233-FB). Satellite cells and myoblasts were cultured on plates coated with Matrigel Basement Membrane Matrix (Catalog number 356237, Corning). […]

Consider `Cc1c[nH]c(-c2cnc(NCCNc3ccc(C#N)cn3)nc2-c2ccc(Cl)cc2Cl)n1` [G, CHIR99021], for which the “Pax7+ cells (immunofluorescence)” value (MEFs expressing MyoD, in the presence of KOSR or ascorbate) is given as “only in the presence of FR”. Moreover, where the note is “MEFs expressing MyoD”, the “formation of MyHC+, polynucleated myotubes” value is “increased” and the “generation of proliferative cells” value is reported as “did not generate any proliferative cells”.

`Cc1cccc(-c2n[nH]cc2-c2ccc3ncccc3n2)n1` [R, 2-3[(6-methyl-2-pyridinyl)-1H-pyrazol-4-yl]-1,5-napthyridine]: under “MEFs expressing MyoD”, the “formation of MyHC+, polynucleated myotubes” value is “increased” and the “generation of proliferative cells” value was “did not generate any proliferative cells”.

As for `O=C1O[C@H]([C@@H](O)CO)C(O)=C1O` [ascorbic acid], the “generation of proliferative cells and contracting myotubes” value (MEFs expressing MyoD exposed to F/R, DMEM with FBS and bFGF lacking KOSR) was “depended on ascorbic acid”. Also, for the setting “MyoD + FR, medium without serum replacement”, the “Pax7+ iMPC formation after withdrawal of SR” value is “partially rescues this phenotype”.
